In publication PMC8901748, “A novel prostaglandin E receptor 4 (EP4) small molecule antagonist induces articular cartilage regeneration” (Cell Discovery, 2022):

Assays:
[1] = test system: STAT-Luc in ATDC5 cells; experiment: STAT-Luc luciferase reporter assay; assay type: cell-based, mouse; details: 2 ng/ml IL-1β, 30 μM HL-43, 6 h
Protocol: Six firefly luciferase reporters were used in the Luciferase assay, including CRE-Luc (PathDetect CRE cis-Reporting System; Stratagene, La Jolla CA) driven by a basic promoter (TATA box) plus four repeats of CRE; Sox9 promoter-Luc contains human SOX9 proximal promoter region (−1034 bp to +67 bp)[45]; 4 × 48-p89-Luc, mouse Col2a1 minimal promoter. AP-1-Luc, Nf-κb-Luc, STAT-Luc were obtained from Stratagene. Chondrocytes were cultured in 24-well plates and 300 ng firefly luciferase reporter constructs were transiently transfected using transfection reagent TransExellent-DNA (Cenji Biotech Inc, China) following manufacturer’s instruction, and 15 ng of the Copia-Renilla luciferase reporter was co-transfected as a normalization control. Cells were treated with the indicated reagents for 48 h after transfection. The Dual-Luciferase measurements were performed in triplicate using the Luciferase assay kit (Promega) and a LUMIstar Omega luminometer (BMG Labtech, Mornington, Australia).

[2] = Preliminary pharmacokinetic studies in CD1 mice; assay type: in vivo
Protocol: To evaluate the preclinical pharmacokinetic (PK) profiles of compound HL-43 and HL-66, 36 male CD1 mice were randomly divided into four groups for PK studies. […] Blood samples were collected at 0.083, 0.25, 0.5, 1, 2, 4, 8, 12, and 24 h after administration (n = 3). Then the whole blood was centrifuged at 5500 × g for 15 min at 4 °C. After suitable sample preparation, the concentration of HL-43 and HL-66 in plasma sample was determined by Agilent HPLC-MS/MS system (Agilent Technologies, USA). Pharmacokinetic parameters were calculated by WinNonlin software version 7.0 based on non-compartmental analysis (Pharsight Corporation, Mountain View, USA). Mean plasma concentration-time curves were plotted by GraphPad Prism 7.0 (GraphPad Software Inc., CA, USA).

With `C[C@H](NC(=O)c1c(-c2ccccc2)nnn1CCOc1ccc(F)cc1)c1ccc(C(=O)O)cc1` [HL-43] the “STAT luciferase reporter activity” value [1] was “significantly inhibited”, the “AUC0-∞” value ([2]; I.V. (5 mg/kg)) was 917.2 ng·h/mL and the C0 ([2]; I.V. (5 mg/kg)) was 1613.6 ng/mL. For the same compound, the CL ([2]; I.V. (5 mg/kg)) was 1.1 L/h/kg, the Vd ([2]; I.V. (5 mg/kg)) was 6.3 L/kg and the t1/2 ([2]; I.V. (5 mg/kg)) was 4.0 h. The “AUC0-∞” value ([2]; P.O. (1 mg/kg)) was 1076.1 ng·h/mL, the CL ([2]; P.O. (1 mg/kg)) was 4.6 L/h/kg and the Cmax ([2]; P.O. (1 mg/kg)) was 270.2 ng/mL. For the same compound, the Vd ([2]; P.O. (1 mg/kg)) was 21.8 L/kg, the t1/2 ([2]; P.O. (1 mg/kg)) was 3.3 h and the Bioavailability ([2]; oral) was 23.7%.
